Test results from publication PMC11859184, “Synthesis and Evaluation of ^68Ga- and ^177Lu-Labeled [diF-Pro^14]Bombesin(6−14) Analogs for Detection and Radioligand Therapy of Gastrin-Releasing Peptide Receptor-Expressing Cancer” (Pharmaceuticals, 2025).
Read-outs that look alike come from different tables or passages of the source. Each block holds one compound with its values, some of them ahead of it.

How the values were obtained:
[1] = molecular target: T1, GRPR (Homo sapiens, UniProt P30550); test: Fluorometric intracellular calcium release assay using PC-3 cells; format: cell-based; settings: 50 nM ligand, n = 4
T1 construct: host or cells: PC-3 cells
Protocol: The agonist/antagonist characteristics of LW02060, Ga-LW02060, Lu-LW02060, LW02080, Ga-LW02080, and Lu-LW02080 were determined following published procedures. The PC-3 cells were obtained from ATCC (via Cedarlane, Burlington, ON, Canada). A 96-well clear bottom black plate was seeded with 5 × 10^4 PC-3 cells in 100 μL growth media per well 24 h before the assay. The loading buffer (100 μL/well) containing a calcium-sensitive dye (FLIPR Calcium 6 assay kit from Molecular Devices, San Jose, CA, USA) was added into the 96-well plate, followed by 1 h incubation at 37 °C. The plate was then transferred into a FlexStation 3 microplate reader (Molecular Devices, San Jose, CA, USA). LW02060 (50 nM), Ga-LW02060 (50 nM), Lu-LW02060 (50 nM), LW02080 (50 nM), Ga-LW02080 (50 nM), Lu-LW02080 (50 nM), [D-Phe^6,Leu-NHEt^13,des-Met^14]Bombesin(6–14) (50 nM, antagonist control), bombesin (50 nM, agonist control), adenosine triphosphate (ATP, 50 nM, positive control), or DPBS (blank control) was added, and the fluorescent signals were measured for 2 min (λEx = 485 nm; λEm = 525 nm; n = 4). The relative fluorescent units (RFU = max − min) were calculated to determine the agonistic/antagonistic characteristics of LW02060, Ga-LW02060, Lu-LW02060, LW02080, Ga-LW02080, and Lu-LW02080, respectively.

[2] = Ex vivo biodistribution of 68Ga-labeled tracers in PC-3 tumor-bearing mice; settings: mouse, 1 h pi; for tissue to tissue ratio at 1 h: male, NOD.Cg-Rag1^tm1Mom Il2rg^tm1Wjl/SzJ (NRG), iv, total radioactivity; for tissue uptake at 1 h: intravenous
Protocol: PET/CT imaging and biodistribution studies were conducted using male NOD.Cg-Rag1^tm1Mom Il2rg^tm1Wjl/SzJ (NRG) mice following previously published procedures. The studies were carried out in compliance with the guidelines established by the Canadian Council on Animal Care and approved by Animal Ethics Committee of the University of British Columbia (protocol number A20-0113, approved on 30 September 2022). The mice were anaesthetized and subcutaneously implanted with 5 × 10^6 PC-3 cells (100 µL; 1:1 PBS/Matrigel) behind the left shoulder. PET/CT imaging and biodistribution studies were performed once the tumors reached a diameter of 5–8 mm, typically after approximately 4 weeks of growth.
For ex vivo biodistribution studies, the mice were injected with the ^68Ga-labeled tracer (2–4 MBq) via a lateral caudal tail vein. For blocking [^68Ga]Ga-LW02060, the mice were co-injected with 100 μg of [D-Phe^6,Leu-NHEt^13,des-Met^14]Bombesin(6–14). For blocking [^68Ga]Ga-LW02080, the mice were co-injected with 100 μg of its nonradioactive standard Ga-LW02080. At 1 h pi, the mice were euthanized by CO2 inhalation. Blood and organs/tissues of interest were collected, weighed, and counted using a gamma counter.

T1 sequence (P30550 whole entry): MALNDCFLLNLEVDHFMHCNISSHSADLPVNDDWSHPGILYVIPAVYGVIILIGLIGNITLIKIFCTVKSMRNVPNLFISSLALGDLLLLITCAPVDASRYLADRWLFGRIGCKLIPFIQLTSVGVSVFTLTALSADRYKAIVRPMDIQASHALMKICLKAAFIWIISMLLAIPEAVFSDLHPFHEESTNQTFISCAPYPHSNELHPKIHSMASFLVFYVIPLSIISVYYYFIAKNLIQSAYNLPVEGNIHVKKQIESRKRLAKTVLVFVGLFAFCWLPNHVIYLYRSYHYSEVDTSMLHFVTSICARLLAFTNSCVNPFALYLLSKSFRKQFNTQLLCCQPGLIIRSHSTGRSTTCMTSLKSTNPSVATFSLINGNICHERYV

intracellular calcium release [1]: 286 ± 9.44 RFU
Compound: Nc1ncnc2c1ncn2[C@@H]1O[C@H](COP(=O)(O)OP(=O)(O)OP(=O)(O)O)[C@@H](O)[C@H]1O [ATP, adenosine triphosphate, reference compound]

intracellular calcium release [1]: 16.6 ± 3.84 RFU
Compound: [D-Phe^6,Leu-NHEt^13,des-Met^14]Bombesin(6–14) [reference compound]

tissue to tissue ratio at 1 h ([2]; tumor/blood, blocked (100 µg blocking agent co-injected), read-out: Tumor/blood uptake ratio): 0.87 ± 0.15 | tissue to tissue ratio at 1 h ([2]; tumor/blood, n = 4, read-out: Tumor/blood uptake ratio): 22.7 ± 4.13 | tissue to tissue ratio at 1 h ([2]; tumor/bone, blocked (100 µg blocking agent co-injected), read-out: Tumor/bone uptake ratio): 5.52 ± 0.68 | tissue to tissue ratio at 1 h ([2]; tumor/bone, n = 4, read-out: Tumor/bone uptake ratio): 69.8 ± 13.7 | tissue to tissue ratio at 1 h ([2]; tumor/kidney, blocked (100 µg blocking agent co-injected), read-out: Tumor/kidney uptake ratio): 0.14 ± 0.03 | tissue to tissue ratio at 1 h ([2]; tumor/kidney, n = 4, read-out: Tumor/kidney uptake ratio): 3.18 ± 0.75 | tissue to tissue ratio at 1 h ([2]; tumor/muscle, blocked (100 µg blocking agent co-injected), read-out: Tumor/muscle uptake ratio): 3.61 ± 0.14 | tissue to tissue ratio at 1 h ([2]; tumor/muscle, n = 4, read-out: Tumor/muscle uptake ratio): 117 ± 18.6 | tissue to tissue ratio at 1 h ([2]; tumor/pancreas, blocked (100 µg blocking agent co-injected), read-out: Tumor/pancreas uptake ratio): 3.47 ± 0.64 | tissue to tissue ratio at 1 h ([2]; tumor/pancreas, n = 4, read-out: Tumor/pancreas uptake ratio): 18.4 ± 2.86 | tissue uptake at 1 h ([2]; PC-3 tumor, 100 ug, blocked (100 µg blocking agent co-injected), read-out: PC-3 tumor uptake): 1.71 ± 0.39 %ID/g | tissue uptake at 1 h ([2]; PC-3 tumor, n = 4, read-out: PC-3 tumor uptake): 7.36 ± 1.33 %ID/g | tissue uptake at 1 h ([2]; adrenal glands, 100 ug, blocked (100 µg blocking agent co-injected), read-out: Adrenal glands uptake): 0.69 ± 0.05 %ID/g | tissue uptake at 1 h ([2]; adrenal glands, n = 4, read-out: Adrenal glands uptake): 0.39 %ID/g | tissue uptake at 1 h ([2]; blood, 100 ug, blocked (100 µg blocking agent co-injected), read-out: Blood uptake): 2.02 ± 0.7 %ID/g | tissue uptake at 1 h ([2]; blood, n = 4, read-out: Blood uptake): 0.33 ± 0.08 %ID/g | tissue uptake at 1 h ([2]; bone, 100 ug, blocked (100 µg blocking agent co-injected), read-out: Bone uptake): 0.31 ± 0.06 %ID/g | tissue uptake at 1 h ([2]; bone, n = 4, read-out: Bone uptake): 0.11 ± 0.02 %ID/g | tissue uptake at 1 h ([2]; brain, 100 ug, blocked (100 µg blocking agent co-injected), read-out: Brain uptake): 0.06 ± 0.03 %ID/g | tissue uptake at 1 h ([2]; brain, n = 4, read-out: Brain uptake): 0.01 %ID/g | tissue uptake at 1 h ([2]; fat, 100 ug, blocked (100 µg blocking agent co-injected), read-out: Fat uptake): 0.25 ± 0.04 %ID/g | tissue uptake at 1 h ([2]; fat, n = 4, read-out: Fat uptake): 0.03 ± 0.01 %ID/g | tissue uptake at 1 h ([2]; heart, 100 ug, blocked (100 µg blocking agent co-injected), read-out: Heart uptake): 0.66 ± 0.18 %ID/g | tissue uptake at 1 h ([2]; heart, n = 4, read-out: Heart uptake): 0.11 ± 0.03 %ID/g | tissue uptake at 1 h ([2]; kidneys, 100 ug, blocked (100 µg blocking agent co-injected), read-out: Kidneys uptake): 11.2 ± 1.02 %ID/g | tissue uptake at 1 h ([2]; kidneys, n = 4, read-out: Kidneys uptake): 2.42 ± 0.81 %ID/g | tissue uptake at 1 h ([2]; large intestine, 100 ug, blocked (100 µg blocking agent co-injected), read-out: Large intestine uptake): 0.33 ± 0.1 %ID/g | tissue uptake at 1 h ([2]; large intestine, n = 4, read-out: Large intestine uptake): 0.3 ± 0.09 %ID/g | tissue uptake at 1 h ([2]; liver, 100 ug, blocked (100 µg blocking agent co-injected), read-out: Liver uptake): 1.05 ± 0.39 %ID/g | tissue uptake at 1 h ([2]; liver, n = 4, read-out: Liver uptake): 0.31 ± 0.07 %ID/g | tissue uptake at 1 h ([2]; lungs, 100 ug, blocked (100 µg blocking agent co-injected), read-out: Lungs uptake): 1.52 ± 0.44 %ID/g | tissue uptake at 1 h ([2]; lungs, n = 4, read-out: Lungs uptake): 0.28 ± 0.05 %ID/g | tissue uptake at 1 h ([2]; muscle, 100 ug, blocked (100 µg blocking agent co-injected), read-out: Muscle uptake): 0.53 ± 0.06 %ID/g | tissue uptake at 1 h ([2]; muscle, n = 4, read-out: Muscle uptake): 0.06 ± 0.02 %ID/g | tissue uptake at 1 h ([2]; pancreas, 100 ug, blocked (100 µg blocking agent co-injected), read-out: Pancreas uptake): 0.51 ± 0.18 %ID/g | tissue uptake at 1 h ([2]; pancreas, n = 4, read-out: Pancreas uptake): 0.38 ± 0.04 %ID/g | tissue uptake at 1 h ([2]; small intestine, 100 ug, blocked (100 µg blocking agent co-injected), read-out: Small intestine uptake): 1.04 ± 0.48 %ID/g | tissue uptake at 1 h ([2]; small intestine, n = 4, read-out: Small intestine uptake): 0.24 ± 0.07 %ID/g | tissue uptake at 1 h ([2]; spleen, 100 ug, blocked (100 µg blocking agent co-injected), read-out: Spleen uptake): 0.56 ± 0.17 %ID/g | tissue uptake at 1 h ([2]; spleen, n = 4, read-out: Spleen uptake): 0.18 ± 0.05 %ID/g | tissue uptake at 1 h ([2]; stomach, 100 ug, blocked (100 µg blocking agent co-injected), read-out: Stomach uptake): 0.38 ± 0.2 %ID/g | tissue uptake at 1 h ([2]; stomach, n = 4, read-out: Stomach uptake): 0.08 ± 0.04 %ID/g | tissue uptake at 1 h ([2]; testes, 100 ug, blocked (100 µg blocking agent co-injected), read-out: Testes uptake): 0.63 ± 0.2 %ID/g | tissue uptake at 1 h ([2]; testes, n = 4, read-out: Testes uptake): 0.12 ± 0.03 %ID/g
Compound: CC(C)C[C@@H](CN1CC(F)(F)C[C@H]1C(N)=O)NC(=O)[C@H](Cc1c[nH]cn1)NC(=O)CN(C)C(=O)[C@@H](NC(=O)[C@H](C)NC(=O)[C@H](Cc1c[nH]c2ccccc12)NC(=O)[C@H](CCC(N)=O)NC(=O)[C@@H](Cc1ccccc1)NC(=O)CN1CCC(NC(=O)CN2CCN(CC(=O)O)CCN(CC(=O)O)CCN(CC(=O)O)CC2)CC1)C(C)C [[^68Ga]Ga-LW02080, metal not drawn]
